Columns and labels:
Mut MEFs [1] = assay: Cell survival assay, Crystal violet staining, Mut MEFs; format: cell-based, mouse; conditions: 24 hours, untreated cells set to 100%
Procedure: Cells were seeded on 96-wells plate at a density of 5000 cells per well. Astrocytes were seeded following coating with 0.001% PDL.

Mut MEFs [2] = assay: Survival under Tunicamycin-induced ER stress, Crystal Violet, MEFs; conditions: Mut MEFs, 30 μM, 50 ng/ml Tunicamycin 22 hours (FIG. 20B)
Procedure: Mut MEFs were treated or not for 24 hours with the indicated concentrations of the indicated Sig-1R binders in the presence of 0.1 μg/ml Tunicamycin (Tun) during the last 22 hours. Following, the cells were washed, fixated and stained with Crystal Violet (CV) followed by measurement of absorbance at 570 nm. Shown is average % of CV staining relative to cells not treated with tunicamycin nor Sig-1R binder ±SEM of 3 independent experiments. *p<0.03.
Following, the cells were washed, fixated and stained with Crystal Violet and absorbance at 570 nm was measured. Data is presented relative to cells of the corresponding genotype not treated with p8G5 nor Tunicamycin. Shown is average % of CV staining ±SEM of 3 independent experiments.
Mut MEFs were treated or not for 24 hours with 10, 20 or 30 μM of the indicated Sig-1R binders in the presence of 50 ng/ml Tunicamycin (Tun) during the last 22 hours. Following, the cells were washed, fixated and stained with Crystal Violet (CV) followed by measurement of absorbance at 570 nm. Shown is % of CV staining relative to cells not treated with tunicamycin nor Sig-1R binder ±SEM of 3 independent experiments, *p<0.05.
Mut MEFs were incubated or not with the indicated concentrations of the indicated compounds for 2 hours followed by addition of 50 ng/ml Tunicamycin (Tun) for additional 22 hours, stained with Crystal Violet followed by measurement of absorbance at 570 nm. Shown is average normalized to Tun-treated cells without any compound ±SEM of 3 independent experiments. * not significant; ** p<0.02; *** all values p<0.04.

Mut MEFs [3] = assay: JC1 staining of intact and damaged mitochondria (mitochondrial membrane potential); format: cell-based, mouse; conditions: Mut MEFs, 10 μM, 24 hours (FIG. 20A)
Procedure: Mut MEFs were treated or not for 6 hours with the indicated concentrations of p8G5 (blue), pre084 (purple), or NE-100 (yellow), washed and stained with Hoechst and JC1 for 30 minutes followed by image acquisition using In-Cell-Analyzer-2000. Shown is the % of red/green JC1 integrated intensity per cell relative to that in untreated WT cells of 2-4 independent experiments.
Following, the cells were washed, stained with Hoechst and JC-1 fluorescent dyes for 30 minutes, and subjected to image acquisition using In-Cell-Analyzer-2000. Shown is cellular content of damaged mitochondria (JC1 green channel, red bars), intact mitochondria (JC1 red channel, green bars) and damaged to intact mitochondria ratio (blue bars). Values of control (vehicle treated) cells was set to 100%.
Mut MEFs were treated with the indicated compounds at 10 μM for 24 hours followed by staining with fluorogenic dyes and image-based single-cell analysis. Shown is average effect on ROS level from at least 3-independent experiments ±SEM. […] Mut MEFs were incubated or not for 24 hours with 10 μM of the indicated compound, washed and stained with Crystal Violet. […] Mut MEFs were incubated or not for 24 hours with 10 μM of the indicated compound, washed and stained with JC1 and Hoechst followed by image-based single-cell analysis. Values of untreated cells were set as 100%. Shown is average of at least 3 independent experiments for each parameter compared to its matching control ±SEM. * p<0.05. Putative targets are indicated.
Mut MEFs were incubated or not for 24 hours with 10 μM of the indicated compounds, washed and stained with Hoechst and JC1 followed by image-based single-cell analysis. […] Mut MEFs were incubated or not with the indicated concentrations of the indicated compounds for 2 hours followed by addition of 50 ng/ml Tunicamycin (Tun) for additional 22 hours, stained with Crystal Violet followed by measurement of absorbance at 570 nm.
MEFs were seeded on 1% gelatin-coated 96-wells plate at a density of 5000 cells per well. 24 hours post-plating the cells were incubated with the tested compounds for additional 24 hours. Several DMSO-treated cells (control) were included in each plate at different locations. Following, the cells were stained by addition of fluorogenic dyes for further 30 minutes incubation at 37° C. […] CellROX was used together with Hoechst and CFSE; JC1 was used together with Hoechst. Cells were washed with Hank's balanced salt solution (HBSS) which was used for images acquisition using IN Cell Analyzer 2000 (GE Healthcare, Pitsburgh, Pa., USA). IN Cell Developer Toolbox 1.9.1 software (GE Healthcare) was used for analysis which included cells segmentation using Hoechst and/or CFSE signals. For analysis of JC1 staining, integrated intensity of green and red emissions were used for detection of damaged and intact mitochondria, respectively.

[4] = test system: Hedgehog signaling pathway; assay: Luciferase activity assay in Shh-LIGHT2 cells (Gli1-controlled Firefly / constitutive Renilla); format: cell-based; conditions: for Firefly/Renilla luciferase expression (Hedgehog activation): absence of SAG, 24 hours (FIG. 11A); for SAG-induced HH activity (Firefly/Renilla luciferase): presence of SAG at 50 nM, 24 hours (FIG. 11B)
Procedure: Following lysis, luminescence was measured using the Dual Luciferase assay kit (Promega) followed by Firefly/Renilla luciferase ratio calculation for each treatment. Shown is average Firefly/Renilla luciferase activity ±SD of 3 independent experiments. *p<0.04. […] RNA was extracted from brains of P18 and P21 Mut and WT mice. cDNA was prepared by reverse transcription and subjected to qPCR using primers specific to Gli1 and GAPDH (SEQ ID NOs: 1-2 and 3-4, respectively). Relative quantity (RQ) was calculated by the ΔΔCt method. * p<0.02 [vs control (FIG. 11A) or vs SAG treated cells (FIG. 11B)].
Shh-LIGHT2 cells were seeded at a density of 10,000 cells per well in a 96-wells plate in growing medium. 24 hours post-plating the cells were incubated for additional 24 hours with the tested compounds in low serum media (0.5%) without G418 and Zeocin. Following lysis, Firefly and Renilla luminescence was measured using the Dual Luciferase assay kit (Promega) and a Veritas microplate luminometer (Turner Biosystems).
To test if p8C10 (H5), p8G7 (H9) and p9E6 (H15) compounds that were identified in the screen indeed affect Hedgehog signaling, SHH-lightII cells which stably express an inducible Firefly-Luciferase reporter gene under the control of Gli1 (a read-out of Hedgehog activation) and constitutive Renilla-Luciferase for normalization purposes (Taipale et al. 2000) were used. […] Therefore, p9E6 was identified as an agonist. SHH activation is required for the first steps of oligodendrocyte differentiation, while a subsequent decrease in Hedgehog activity is needed for complete differentiation and myelin production (Bouslama-Oueghlani et al. 2012) and re-myelination (Samanta et al. 2015).

Row | SMILES | Survival (%) ± SEM Mut MEFs (Mut MEFs [1]; 10 μM) [%] | Survival (%) ± SEM Mut MEFs (Mut MEFs [1]; 20 μM) [%] | Survival (%) ± SEM Mut MEFs (Mut MEFs [1]; 30 μM) [%] | cell survival following Tun-induced cell death (Mut MEFs [2]) | mitochondrial health, damaged/intact organelle ratio (JC1) (Mut MEFs [3]) | Firefly/Renilla luciferase expression (Hedgehog activation) [4] | SAG-induced HH activity (Firefly/Renilla luciferase) [4]
1 | Cc1cccc(OCCCCN2CCOCC2)c1 [Hit H8-4, 4-[4-(3-methylphenoxy)butyl]morpholine] | 92 ± 8.5 | 95 ± 4.2 | 98 ± 5.4 | – | – | – | –
2 | Clc1cccc(OCCCCCN2CCOCC2)c1 [Hit H8-7, 4-[5-(3-chlorophenoxy)pentyl]morpholine] | 98 ± 5.1 | 91 ± 4.7 | 88 ± 9.7 | most potent effect | at the top of the list | – | –
3 | CN1CCN(CCCCCOc2ccccc2F)CC1 [Hit H8-8, 1-[5-(2-fluorophenoxy)pentyl]-4-methylpiperazine] | 101 ± 5.6 | 99 ± 11 | 90 ± 3.5 | – | – | – | –
4 | Cc1ccc(OCCCCN2CCOCC2)cc1C [Hit H8-5, 4-[4-(3,4-dimethylphenoxy)butyl]morpholine] | 92 ± 1.7 | 100 ± 4.4 | 98 ± 13.8 | most potent effect | – | – | –
5 | Cc1cc(C)cc(OCCCCCN2CCOCC2)c1 [Hit H8-1, 4-[5-(3,5-dimethylphenoxy)pentyl]morpholine] | 104 ± 2.7 | 103 ± 4.7 | 97 ± 3.9 | – | – | – | –
6 | O=C(Cc1ccccc1)N1CCN(c2ccccc2F)CC1 [Hit H9, 1-(2-fluorophenyl)-4-(phenylacetyl)piperazine] | – | – | – | – | – | not able to activate the pathway | inhibited the SAG-induced HH activity
7 | C=CCn1c(-c2cc(OC)c(OC)c(OC)c2)nc2ccccc21 [Hit H5, 1-allyl-2-(3,4,5-trimethoxyphenyl)-1H-benzimidazole] | – | – | – | – | – | not able to activate the pathway | inhibited the SAG-induced HH activity
